# Measured values as given in patent US20050118226A1, “Methods for treating ACAT-related diseases” (priority 2003, published 2005).
# Experiments:
# [1] = test system: Aβ1-40 and Aβ1-42; test: Sandwich ELISA of brain Aβ1-40 and Aβ1-42 in hAPP mice; type: in vivo, mouse
# Experimental: For Aβ determinations, frozen hemispheres were first homogenized in TBS-buffer (5 ml) containing a protease inhibitor cocktail (Protease Inhibitor Cocktail Set I, Calbiochem) and then centrifuged at 75000 g for 1 hour, as described elsewhere (Kawarabayashi et al., 2001). Supernatants were saved for soluble Aβ analyses (see below). Pellets were resuspended and further homogenized in 70% formic acid (1 ml), followed by centrifugation at 75000 g for 1 hour. Formic acid-supernatants were neutralized with 1M TRIS (19 ml) and used for ELISA determination (insoluble Aβ). Aβ1-40 and Aβ1-42 were assayed using commercially available ELISA kits (The Genetics Company®, Switzerland). Measurements were performed at least in duplicate. Soluble Aβ ELISAs: secreted Aβ1-40 and Aβ1-42 levels in the TBS homogenate were analyzed by a sandwich ELISA system as described previously using the following antibodies: Aβ40=MM27 33.1.1 capture, MM32 13.1.1 for detection; Aβ42=MM27 33.1.1 capture, MM26 4.1.3 for detection (Suzuki et al., 1994).
# We next used a sandwich enzyme-linked immunosorbent assay (ELISA) to measure Aβ1-40 and Aβ1-42 levels in 70% formic acid extracts from brain homogenates (“insoluble” Aβ) and in the initial TBS fraction of the same homogenates (soluble Aβ). Similar to plaque load, Aβ levels varied widely, as expected in transgenic mice specifically at early stages of pathology (Johnson-Wood et al., 1997; Kawarabayashi et al., 2001). Treatment with CP-113,818 decreased Aβ1-40 and Aβ1-42 in the formic acid fraction to almost undetectable concentrations. […] Since brain extracts were obtained from entire hemispheres including cortices and hippocampi, the difference between male and female Aβ levels at this age was accentuated by the slowly developing amyloid pathology in male hippocampi (see FIG. 3B). When analyzed according to gender, only female “insoluble” Aβ was sufficiently elevated to obtain a highly significant decrease by CP-113,818 treatment, with Aβ1-40 down by 96% (p<0.014) and Aβ1-42 down by 90% (p<0.014; FIG. 5A). […] This decrease was statistically significant in both genders. Soluble Aβ1-40 levels were close to the limit of detection, but a trend toward decrease was observed (20%) in all animals, significant only in males (FIG. 5B).
# [2] = test system: APP; test: Western blot of APP and fragments in formic acid brain extracts of hAPP mice; type: in vivo, mouse
# Experimental: For Western blot analyses, frozen hemispheres of non-transgenic littermates were homogenized in TBS buffer containing 5 mM EDTA, 1 mM 1,10-phenanthroline (ICN Biomedicals), 20 μM ALLN (BioMol) and a protease inhibitor mixture (Roche). Homogenates were centrifuged at 100000 g for 1 hour at +4° C. The supernatants were used for analyses of secreted APP forms and ApoE, while the pellets extracted with the homogenization buffer containing 1% Triton X-100 and 0.2% SDS. 120 μg of total protein were resolved on 4-12% or 12% NuPAGE Bis-Tris gels (Invitrogen) under reducing conditions, and Western blots were performed as described previously (Puglielli et al., 2001). For analysis of Notch-ICD (NICD), 250 μg of total protein was immunoprecipitated with an NICD-specific antibody (cleavage site (Val1744)-specific; Cell Signaling Technology) according to manufacturer's recommendations. […] Densitometric analyses were performed using the QuantityOne software package (Bio-Rad). Statistical significance was determined by Student's t test. […]
# [3] = female hAPP mice, brain formic acid extracts
# [4] = hAPP mice, all animals, brain formic acid extracts
smiles,measurement,setting,value
"CCCCCCCC[C@H](SCCCCCC)C(=O)Nc1c(SC)cc(C)nc1SC [CP-113,818]","decrease in insoluble Aβ1-40, females",[1]; [3],96%
same,"decrease in insoluble Aβ1-42, females",[1]; [3],90%
same,reduction of soluble Aβ1-42,"[1]; hAPP mice, TBS fraction lacking detergents",34%
same,decrease in insoluble Aβ1-40,[1]; [4],92%
same,decrease in insoluble Aβ1-42,[1]; [4],83%
same,Aβ1-42/Aβ1-40 ratio,"[1]; hAPP mice, insoluble Aβ",no significant difference
same,"decrease of ""insoluble"" Aβ (summary)",[1]; transgenic mice,83-99%
same,full-length APP and APP C-terminal fragments C83 and C99,[2],unchanged
same,decrease of sAPP levels,[2]; adjusted to full-length APP,60%
